According to patent US12144864B2, “Tubulysins and protein-tubulysin conjugates” (Regeneron Pharmaceuticals, Inc., priority 2018, dated 2024):
Where “and” joins values, the source holds several entries; their conditions need not be identical. Identical values can stand only once. Like-named read-outs stand apart in the source and are kept apart here. Non-standard residues stand in square brackets, D forms with d. Residues, ends and D or L forms follow the SMILES beside them. *: point of attachment. Dolaproine = CO[C@@H]([C@@H]1CCCN1)[C@@H](C)C(=O)O; Dil = CC[C@H](C)[C@H](NC)[C@@H](CC(=O)O)OC; X1 = C[C@@H](N*)[C@@H](O)c1ccccc1; NMeV = CN[C@H](C(=O)O)C(C)C

Experiments:
[1] = test system: HCT15 cells; test: cells; assay type: cell-based, human; settings: for HCT-15 + verapamil % Kill / IC50 / HCT-15 % Kill: HCT15 cells; for HCT-15 + verapamil % Kill / HCT-15 % Kill: maximum % cell killing
Summary of the method: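 Five-day exposure of 1000 HCT15 cells/well to threefold payload dilutions, run both plus and minus verapamil (5 ug/mL) in RPMI with 10% FBS. ATP luminescence (CellTiter-Glo) gives viability; four-parameter logistic fit of 10 points yields IC50, and 100 − % viable at highest dose gives % kill.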

[2] = test system: HCT-15 cells; test: Cytotoxicity in panel of MDR cell lines, HCT-15 (72 h and 144 h); assay type: cell-based, human
Summary of the method: (§1)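 Luminescent ATP readout (CellTiter-Glo) quantified viable cells after 72 h or 144 h exposure to 1:3 serial payload dilutions. Cells plated at 1000/well in their normal growth media. IC50 in M from a four-parameter logistic fit; % kill at top concentration taken as 100 − % viable.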

[3] = test system: H69AR cells; test: Cytotoxicity in panel of MDR cell lines, H69AR (72 h and 144 h); assay type: cell-based, human
Summary of the method: as §1

[4] = test system: C4-2 cells; test: Cell-based killing assay of payloads (CellTiter-Glo), C4-2 cells; parameters: species or system human; settings: 5-day incubation; for IC50: average ± SD where replicates; for C4-2 % Kill: at maximum concentration tested (100 − % viable cells)
Summary of the method: (§2)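 Viability readout is CellTiter-Glo luminescence after a 5-day exposure to 10-point, threefold-diluted payloads spanning 100 nM–[…], following overnight attachment of 4000 cells/well. Four-parameter logistic fit gives IC50 in M; % kill taken at highest concentration tested.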

[5] = test system: C4-2 cells; test: Cytotoxicity of anti-STEAP2 ADCs, payloads and reference compounds in C4-2 cells; assay type: cell-based, human
Procedure: To test the ability of the disclosed tubulysin payloads to kill human cell lines, an in vitro cytotoxicity assay was performed. In vitro cytotoxicity of the disclosed payloads, as well as reference compounds, were evaluated using the CellTiter-Glo Assay Kit (Promega, Cat #G7573), in which the quantity of ATP present is used to determine the number of viable cells in culture. For the assay, C4-2, HEK293, or T47D cells were seeded at 4000 cells/well on Nunclon white 96-well plates in complete growth medium (DME high glucose:Ham's F12 at 4:1, 10% FBS, 100 units/ml Penicillin, 100 ug/ml streptomycin, 53 ug/ml glutatmine, 10 ug/ml insulin, 220 ng/ml biotin, 12.5 pg/ml T3, 12.5 ug/ml Adenine, 4 ug/ml transferrin for C42 cells; DME high glucose, 10% FBS, 100 units/ml Penicillin, 100 ug/ml streptomycin, 53 ug/ml glutatmine for HEK293; RPMI, 10% FBS, 100 units/ml Penicillin, 100 ug/ml streptomycin, 53 ug/ml glutatmine, 10 ug/ml insulin, 10 mM HEPEs, 200 nM Sodium Pyruvate for T47D cells) and grown overnight at 37° C. in 5% CO2. For cell viability curves, 1:3 serially diluted payloads were added to the cells at final concentrations ranging from 100 nM to […], including a no treatment control group, and were then incubated for 5 days. After the 5-day incubation, cells were incubated at room temperature with 100 μL of CellTiter-Glo reagents for 10 minutes. Relative luminescence units (RLU) were determined on a Victor plate reader (PerkinElmer). The IC50 values were determined from a four-parameter logistic equation over a 10-point response curve (GraphPad Prism). All IC50 values are expressed in molar (M) concentration. The percent cell killing (% kill) at the maximum concentration tested was estimated from the following formula (100−% viable cells). Averages±standard deviation (SD) are included where replicate experiments were performed.
To further test the ability of the disclosed tubulysin payloads, reference compounds, and antibody drug conjugates using these payloads, a cytotoxicity assay was performed using C4-2 cells as described in this example (see above). For these studies, anti-STEAP2 antibodies were conjugated to select tubulysins payloads, and the compounds were tested at concentrations starting at 100 nM with 3-fold serial dilution. All IC50 values are expressed in nM concentration and the percent cell killing at the maximum concentration tested was estimated from the following formula (100−% viable cells).

[6] = test system: HL60/MX2 cells; test: Cytotoxicity in panel of MDR cell lines, HL60/MX2 (72 h and 144 h); assay type: cell-based, human
Summary of the method: as §1

[7] = test system: MES-SA/MX2 cells; test: Cytotoxicity in panel of MDR cell lines, MES-SA/MX2 (72 h and 144 h); assay type: cell-based, human
Summary of the method: as §1

[8] = test system: HEK293 cells; test: Cell-based killing assay of payloads (CellTiter-Glo), HEK293 cells; parameters: species or system human; settings: 5-day incubation
Summary of the method: as §2

[9] = test system: T47D cells; test: Cell-based killing assay of payloads (CellTiter-Glo), T47D cells; parameters: species or system human; settings: 5-day incubation
Summary of the method: as §2

[10] = with 5 ug/mL Verapamil, read-out: HCT-15 + verapamil IC50
[11] = at maximum concentration tested

For `CC[C@H](C)[C@@H]([C@@H](CC(=O)N1CCC[C@H]1[C@H](OC)[C@@H](C)C(=O)N[C@H](C)[C@@H](O)c1ccccc1)OC)N(C)C(=O)[C@@H](NC(=O)[C@@H](NC)C(C)C)C(C)C` [MMAE, Monomethyl auristatin E, reference compound] (H-[NMeV]V[Dil][Dolaproine]-X1), the “HCT-15 + verapamil % Kill” value ([1]; with 5 ug/mL Verapamil) was 98.4 ± 0.5%, the IC50 [1, 10] was 782 pM and the “HCT-15 % Kill” value ([1]; without Verapamil) was 97.1 ± 3.7%. The IC50 ([1]; without Verapamil, read-out: HCT-15 IC50) was 17700 pM, the “HCT-15 IC50/HCT-15+Verapamil IC50 ratio” value ([1]; IC50 without Verapamil divided by IC50 with Verapamil) was 23.7 and the “HCT15 IC50/HCT-15 + Verapamil IC50” value ([1]; ratio of IC50 without Verapamil to IC50 with Verapamil) was 23.7 ± 12.0. For the same compound, the “HCT-15 % Kill 72 h” value ([2]; 72 h incubation) was 93.7%, the IC50 ([2]; 72 h incubation, read-out: HCT-15 IC50 72 h) was 16800 pM and the “H69AR % Kill 72 h” value ([3]; 72 h incubation) was 66.8%. The IC50 ([3]; 72 h incubation, read-out: H69AR IC50 72 h) was 923 pM, the “H69AR % Kill 144 h” value ([3]; 144 h incubation) was 92.7% and the IC50 ([3]; 144 h incubation, read-out: H69AR IC50 144 h) was 683 pM. The IC50 [4] was 287 pM, the “C4-2 % Kill” value [4] was 93.7% and 93.7 ± 2.5% and the “% kill” value [5, 11] was 99%. The IC50 ([5]; top concentration 100 nM, 3-fold serial dilution) was 220 pM, the “HL60/MX2 % Kill 72 h” value ([6]; 72 h incubation) was 88.7% and the IC50 ([6]; 72 h incubation, read-out: HL60/MX2 IC50 72 h) was 418 pM. For the same compound, the “HL60/MX2 % Kill 144 h” value ([6]; 144 h incubation) was 99.6%, the IC50 ([6]; 144 h incubation, read-out: HL60/MX2 IC50 144 h) was 164 pM and the “MES-SA/MX2 % Kill 72 h” value ([7]; 72 h incubation) was 65.6%. The IC50 ([7]; 72 h incubation, read-out: MES-SA/MX2 IC50 72 h) was 37300 pM, the “MES-SA/MX2 % Kill 144 h” value ([7]; 144 h incubation) was 58.1% and the IC50 ([7]; 144 h incubation, read-out: MES-SA/MX2 IC50 144 h) was 683 pM.

With `C#CCCCON(C(=O)[C@@H](NC(=O)[C@H]1CCCCN1C)[C@@H](C)CC)[C@H](C[C@@H](OC(C)=O)c1nc(C(=O)N[C@@H](Cc2ccc(N)cc2)C[C@H](C)C(=O)O)cs1)C(C)C` [Vh, (2S,4R)-4-({2-[(1R,3R)-1-(Acetyloxy)-4-methyl-3-[(2S,3S)-3-methyl-2-{[(2R)-1-methylpiperidin-2-yl]formamido}-N-(pent-4-yn-1-yloxy)pentanamido]pentyl]-1,3-thiazol-4-yl}formamido)-5-(4-aminophenyl)-2-methylpentanoic acid] the “HCT-15 + verapamil % Kill” value ([1]; with 5 ug/mL Verapamil) was 98.1%, the IC50 [1, 10] was 587 pM and the “HCT-15 % Kill” value ([1]; without Verapamil) was 97.7%. The IC50 ([1]; Homo sapiens, HCT-15, without Verapamil, read-out: HCT-15 IC50) was 1470 pM, the “HCT-15 % Kill 72 h” value ([2]; 72 h incubation) was 97% and the “HCT-15 % Kill 144 h” value ([2]; 144 h incubation) was 99.6%. For the same compound, the IC50 ([2]; Homo sapiens, 72 h incubation, read-out: HCT-15 IC50 72 h) was 871 pM, the IC50 ([2]; Homo sapiens, 144 h incubation, read-out: HCT-15 IC50 144 h) was 1270 pM and the “H69AR % Kill 72 h” value ([3]; 72 h incubation) was 93.7%. For the same compound, the “H69AR % Kill 144 h” value ([3]; 144 h incubation) was 98.4%, the IC50 ([3]; Homo sapiens, 72 h incubation, read-out: H69AR IC50 72 h) was 2590 pM and the IC50 ([3]; Homo sapiens, 144 h incubation, read-out: H69AR IC50 144 h) was 4210 pM. For the same compound, the IC50 ([4]; Homo sapiens, C4-2, 120 h) was 509 pM, the “C4-2 % Kill” value [4] was 92% and the “HL60/MX2 % Kill 72 h” value ([6]; 72 h incubation) was 97.5%. The “HL60/MX2 % Kill 144 h” value ([6]; 144 h incubation) was 99.9%, the IC50 ([6]; Homo sapiens, 72 h incubation, read-out: HL60/MX2 IC50 72 h) was 173 pM and the IC50 ([6]; Homo sapiens, 144 h incubation, read-out: HL60/MX2 IC50 144 h) was < 15 pM. The IC50 ([8]; Homo sapiens, HEK293, 120 h) was 718 pM, the “HEK293 % Kill” value [8, 11] was 85.6% and the IC50 ([9]; Homo sapiens, T47D, 120 h) was 458 pM. For the same compound, the “T47D % Kill” value [9, 11] was 64.5%, the “MES-SA/MX2 % Kill 72 h” value ([7]; 72 h incubation) was 98.4% and the “MES-SA/MX2 % Kill 144 h” value ([7]; 144 h incubation) was 99.8%. It also gave an IC50 ([7]; Homo sapiens, 72 h incubation, read-out: MES-SA/MX2 IC50 72 h) of 2980 pM and an IC50 ([7]; Homo sapiens, 144 h incubation, read-out: MES-SA/MX2 IC50 144 h) of 8150 pM.
